# Legend:
# [1] = target: T1, Recombinant human CD38 protein (Homo sapiens, UniProt P28907); assay: Microscale thermophoresis (MST) binding affinity; set-up: purchased R&D 2404-AC-010; conditions: for Response Amplitude: Table S2
# Experimental: Microscale thermophoresis (MST) assays determined the binding affinity of synthesized peptides to purified CD38 protein and was performed using the Monolith NT.115 (Nanotemper Technologies, Munich, Germany). […] Recombinant human CD38 protein (R&D, Catalog 2404-AC-010, Minneapolis, MN) was labeled with NT647 (Protein labeling kit red-maleimide, Nanotemper Technologies, Germany) and subsequently diluted to 5 nM in MST-2 buffer (50 mM Tris–HCl, pH 7.4, 150 mM NaCl, 10 mM MgCl2, 2% DMSO, and 0.1% Tween-20). Fluorescence was assessed in MST-2 buffer. Samples were loaded into NT.115 standard capillaries, and analysis was performed at 37 °C, 10% LED power, and 40% MST power. The Kd values were calculated from fragment concentration-dependent changes in normalized fluorescence (Fraction Bound) of different CD38 peptides based on the law of mass action using the MO Affinity Analysis v2.3 software.
# Microscale Thermophoresis (MST) measures molecular interactions based on temperature gradient-dependent mobility of fluorescent biomolecules.
# Fig. 1 Binding studies evaluating CD38-peptides using purified CD38 protein. Microscale thermophoresis (MST) analysis of binding affinities between purified CD38 protein and various CD38 peptide sequences.
# hCD38 = assay: Phage display biopanning, PHASTpep selectivity score; assay type: binding, human; conditions: fold change of peptide frequency hCD38 versus average of hCD4, hCD8, GST-His; two rounds of biopanning, NGS
# From the text: Using phage display and purified human CD38 protein (hCD38), the first generation high- and low-selectivity CD38-targeted peptides were identified for the development of CD38-targeted imaging agents. Briefly, two rounds of phage display screening using the PHASTpep platform identified selective peptides for human CD38. CD38 (R&D, Catalog 2404-AC-010, Minneapolis, MN, U.S.A.) or negative control proteins, human CD4 (hCD4), human CD8 (hCD8), and GST-6His were adsorbed on Maxisorp plates (Nalgene, Nunc #442,404) according to NEB phage display protocols (NEB, Ipswich, MA). A 10 μL aliquot of PhD7 library (7 amino acid linear library) (2 × 10^11 phage) (NEB, #E8211S) diluted in blocking buffer (DPBS/1% bovine serum albumin (BSA)) was added to each well. After 1 h of incubation at room temperature, wells were washed five times with blocking buffer and the remaining bound phage eluted into 100 μL of glycine buffer (0.2 M glycine, 0.5 M NaCl, pH 2.2) for 9 min before immediately neutralizing with 17 μL of 1 M Tris–HCl (pH 9.2).
# For analysis, sequencing of the selected phage clones was performed as described in Brinton et al.. Samples sent to the UVA Biomolecular Research Core Facility were deep sequenced on an Illumina MiSeq Sequencer. FASTQ files were analyzed using PHASTpep. PHASTpep analyzed files were aligned for amino acid sequence homology using the Smith—Waterman algorithm.
# To identify peptides selective for CD38, we biopanned a random, 7 amino acid peptide phage library on recombinant hCD38 as well as hCD4, hCD8, and GST-His. After two rounds of biopanning on each protein, phage were harvested, amplified, and processed for next generation sequencing (NGS). FASTQ files were uploaded into PHASTpep, translated into peptides, and tables of frequency produced. All sequences were normalized to the naïve library (preselection) sequence frequencies and finally the fold change for each peptide frequency between hCD38 and the average of the same peptide frequency from the hCD4, hCD8, and GST-His screens was calculated. The Smith-Waterman homology algorithm was employed to identify clusters of similar peptides (Table S1). From the analysis, two clusters emerged with more than 5 peptides in the homology family and also had high selectivity (PHASTpep Score, Table S1).
# [2] = target: T2, CD38 on MM.1S-CBR-GFP-WT cells (Homo sapiens, UniProt P28907); assay: In vitro blocking study of ^64Cu-NODAGA-PEG4-SL022-GGS cell binding; assay type: cell-based; conditions: for blocking of ^64Cu-NODAGA-PEG4-SL022-GGS binding: 75 μM blocker, MM.1S-CBR-GFP-WT cells
# T2 construct: endogenous in cells; host or cells: MM.1S-CBR-GFP-WT human myeloma cells
# Experimental: To evaluate the specificity of the CD38 binding peptide, MM.1S-CBR-GFP-WT cells were suspended in binding buffer (Hank’s Balanced Salt Solution with 1 mM Ca^2+ and 1 mM Mg^2+ (HBSS + / +, Gibco, ThermoFisher, Waltham, MA) supplemented with 0.1% BSA) at 4 × 10^5 cells per 250 μL, representing the reaction volume.
# In order to determine whether the conjugates were able to identify CD38 protein expressed in its native context, we performed cell binding assays with MM.1S-CBR-GFP-WT cells.
# [3] = target: T1, Recombinant human CD38 protein; assay: MST; Monolith NT.115; NT647-labeled recombinant human CD38 at 5 nM in MST-2 buffer (50 mM Tris-HCl pH 7.4, 150 mM NaCl, 10 mM MgCl2, 2% DMSO, 0.1% Tween-20); peptides titrated (0.0305 nM to 1000 nM or 0.0305 uM to 1000 uM); 37 °C, 10% LED power, 40% MST power
Molecule,Score (PHASTpep Score) (hCD38),also measured
AC-Phe-Ser-Arg-Asp-Trp-Thr-Ser-Gly-Gly-Ser-Lys-NH2 [AC-SL028-GGS],–,Response Amplitude [1]: 4.64
AC-Thr-His-Tyr-Pro-Ile-Val-Ile-Gly-Gly-Ser Lys-NH2 [AC-SL022-GGS],–,Response Amplitude [1]: 4.91
DLVHYPE,1.5,–
FSRDWTS,671.1,–
MPVARDW,2.1,–
NODAGA-PEG4-Thr-His-Tyr-Pro-Ile-Val-Ile-Gly-Gly-Ser-Lys-NH2 [NODAGA-PEG4-SL022-GGS],–,"blocking of ^64Cu-NODAGA-PEG4-SL022-GGS binding ([2]; 300 nM tracer, 4 °C, 60 min): 58%; decrease in cell-bound ^64Cu-NODAGA-PEG4-SL022-GGS ([2]; 250-fold molar excess of unlabeled blocker): about 2 fold"
QGTDWTM,1.7,–
QTSHDWL,1.7,–
TPYPIVL,429.7,–
Thr-His-Tyr-Pro-Ile-Val-Ile [THYPIVI],730.1,–
VNYHFPV,1.2,binding to purified CD38 [1]: negligible binding
VSYHFPV,194.4,–
YDWTMHS,299.7,–
YKDWSEW,266.4,–
daratumumab: CD38-targeted FDA approved antibody [reference compound],–,"blocking of ^64Cu-NODAGA-PEG4-SL022-GGS binding ([2]; 300 nM tracer, 4 °C, 60 min): 73%; cell-bound ^64Cu-NODAGA-PEG4-SL022-GGS in presence of blocker ([2]; 300 nM tracer, 75 μM unlabeled blocker (250-fold molar excess), 4 °C, 60 min, mean ± SD): 3000 ± 600 fmol/mg"
FSRDWTSGGSK (AC (acetyl) on the N-terminus; C-terminal amide) [AC-SL028-GGS (AC-Phe-Ser-Arg-Asp-Trp-Thr-Ser-Gly-Gly-Ser-Lys-NH2)],–,Kd [3]: 243 nM
H-KGGSFSRDWTS-NH2 [GGS-SL028 (H-Lys-Gly-Gly-Ser-Phe-Ser-Arg-Asp-Trp-Thr-Ser-NH2)],–,Kd [3]: 82.6 nM

# From article PMC11282151, “Development of New CD38 Targeted Peptides for Cancer Imaging” (Molecular imaging and biology, 2024)
